Test results as given in patent publication US11564928B1, “Cannabinoid receptor type 2 (CB2) modulators and uses thereof” (Teon Therapeutics, Inc., priority 2020, dated 2023).
Like-named read-outs stand apart in the source and are kept apart here.

Key:
[1] = target: T1, human CB2 receptor (Homo sapiens (Human), UniProt P34972); test: CB2 receptor binding assay ([3H]CP-55,940 displacement, HEK-293 membranes); details: membranes of HEK-293 cells with human recombinant CB2R, [3H]CP-55,940, read-out: CB2 IC50
[2] = target: human recombinant CB1R (Homo sapiens (Human), UniProt P21554); test: CB1 receptor binding assay ([3H]CP-55,940 displacement, HEK-293 membranes); details: membranes of HEK-293 cells with human recombinant CB1R, [3H]CP-55,940, read-out: CB1 IC50
Procedure, shortened: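 Membranes from HEK-293 cells expressing human recombinant CB1R or CB2R were incubated with [3H]CP-55,940 and compound for 120 min at 37 °C in duplicate. The CB2R incubation buffer was 50 mM Tris-HCl, 5 mM MgCl2, 1 mM CaCl2, 0.2% BSA, pH 7.4. Bound radioactivity was filtered and counted, and IC50 was converted to Ki by Cheng–Prusoff.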

[3] = target: T1, human CB2 receptor; test: CB2 receptor cAMP assay (DiscoverX HitHunter cAMP XS+); format: cell-based
Experimental: cAMP Hunter CHO-K-1 cell lines expressing human CB2 receptor (Eurofins) were expanded from freezer stocks according to standard procedures. Cells were seeded in a total volume of 20 μL into white walled, 384-well microplates and incubated at 37° C. for the appropriate time prior to testing. cAMP modulation in agonist, inverse agonist or antagonist format was determined using the DiscoverX HitHunter cAMP XS+ assay (Eurofins). For agonist determination, cells were incubated with sample in the presence of EC80 forskolin to induce response. Media was aspirated from cells and replaced with 15 μL 2:1 HBSS/10 mM Hepes: cAMP XS+Ab reagent. Intermediate dilution of sample stocks was performed to generate 4× sample in assay buffer containing 4× EC80 forskolin. 5 μL of 4× sample was added to cells and incubated at 37° C. or room temperature for 30 or 60 minutes. Final assay vehicle concentration was 1%. For inverse agonist determination, cells were preincubated with sample in the presence of EC20 forskolin. Media was aspirated from cells and replaced with 15 μL, 2:1 HBSS/10 mM Hepes: cAMP XS+Ab reagent. Intermediate dilution of sample stocks was performed to generate 4× sample in assay buffer containing 4× EC20 forskolin. 5 μL of 4× sample was added to cells and incubated at 37° C. or room temperature for 30 or 60 minutes. Final assay vehicle concentration was 1%. For antagonist determination, cells were pre-incubated with sample followed by agonist challenge at the EC80 concentration. Media was aspirated from cells and replaced with 10 μL 1:1 HBSS/Hepes: cAMP XS+Ab reagent. 5 μL of 4× compound was added to the cells and incubated at 37° C. or room temperature for 30 minutes. 5 μL of 4× EC80 agonist was added to cells and incubated at 37° C. or room temperature for 30 or 60 minutes. EC80 forksolin was included. After appropriate compound incubation, assay signal was generated through incubation with 20 μL cAMP XS+ED/CL lysis cocktail for one hour followed by incubation with 20 μL, cAMP XS+EA reagent for three hours at room temperature. Microplates were read following signal generation with a PerkinElmer Envision instrument for chemiluminescent signal detection. Compound activity was analyzed using CBIS data analysis suite (ChemInnovation, CA). For agonist mode assay, percentage activity is calculated using the following formula: % Activity=100%×(1−(mean RLU of test sample−mean RLU of MAX control)/(mean RLU of vehicle control−mean RLU of MAX control)). For inverse agonist mode assay, percentage activity is calculated using the following formula: % Inverse Agonist Activity=100%×((mean RLU of test sample−mean RLU of EC20 forskolin)/(mean RLU of forskolin positive control−mean RLU of EC20 control)). For antagonist mode assay, percentage inhibition is calculated using the following formula: % Inhibition=100%×(mean RLU of test sample−mean RLU of EC80 control)/(mean RLU of forskolin positive control−mean RLU of EC80 control). Data are analyzed and IC50 is calculated using GraphPad Prism 5 and the model “log(inhibitor) vs. response—Variable slope”.

[4] = CHO-K1, read-out: Max Stimulation %
[5] = CHO-K1, cAMP Hunter CHO-K-1 cells expressing human CB2 receptor, read-out: Max Stimulation %
[6] = cAMP Hunter CHO-K-1 cells expressing human CB2 receptor, read-out: cAMP IC50

T1 sequence (P34972 whole entry): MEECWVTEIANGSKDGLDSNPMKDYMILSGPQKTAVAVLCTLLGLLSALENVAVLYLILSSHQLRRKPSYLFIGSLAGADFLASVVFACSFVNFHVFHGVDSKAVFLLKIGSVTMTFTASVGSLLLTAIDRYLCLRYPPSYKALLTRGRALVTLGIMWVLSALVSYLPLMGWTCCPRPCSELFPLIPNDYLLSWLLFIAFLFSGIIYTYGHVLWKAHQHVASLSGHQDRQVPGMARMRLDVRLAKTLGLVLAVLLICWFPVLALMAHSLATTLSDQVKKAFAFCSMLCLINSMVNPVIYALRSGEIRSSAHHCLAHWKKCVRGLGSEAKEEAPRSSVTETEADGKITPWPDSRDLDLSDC
human recombinant CB1R, sequence (P21554 whole entry): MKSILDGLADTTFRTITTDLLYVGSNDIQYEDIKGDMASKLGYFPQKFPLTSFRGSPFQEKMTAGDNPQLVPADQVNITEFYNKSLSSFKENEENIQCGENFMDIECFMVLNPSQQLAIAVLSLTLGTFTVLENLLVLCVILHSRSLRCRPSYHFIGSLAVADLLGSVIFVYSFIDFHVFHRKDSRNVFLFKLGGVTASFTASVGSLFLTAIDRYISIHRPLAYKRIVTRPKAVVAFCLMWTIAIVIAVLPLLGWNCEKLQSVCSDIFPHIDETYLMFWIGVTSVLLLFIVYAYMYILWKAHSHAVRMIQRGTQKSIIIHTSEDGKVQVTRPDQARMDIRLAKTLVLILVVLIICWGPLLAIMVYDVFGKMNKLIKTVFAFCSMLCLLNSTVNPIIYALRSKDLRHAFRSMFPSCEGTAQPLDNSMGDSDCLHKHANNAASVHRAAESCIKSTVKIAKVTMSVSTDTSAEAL

Row | Emax [3, 5] [%] | Compound | IC50 [1] [nM] | IC50 [2] [nM] | IC50 [3] [nM] | Emax [3, 4] [%] | IC50 [3, 6] [nM] | IC50 ([1]; class symbols) [nM] | IC50 ([2]; class symbols) [nM]
1 | – | CC(C)c1cnc2c(c1)cc(C(=O)N[C@H](C)c1ccc(F)cc1)c(=O)n2Cc1ccc(F)cn1 [Compound 100, (R)—N-(1-(4-fluorophenyl)ethyl)-1-((5-fluoropyridin-2-yl)methyl)-6-isopropyl-2-oxo-1,2-dihydro-1,8-naphthyridine-3-carboxamide] | 4 | 2880 | 2 | 82 | – | – | –
2 | – | O=C(NC1CC2(CCC2)C1)c1cc2cc(C3COC3)cnc2n(Cc2ccc(F)cc2)c1=O [Compound 102, 1-(4-fluorobenzyl)-6-(oxetan-3-yl)-2-oxo-N-(spiro[3.3]heptan-2-yl)-1,2-dihydro-1,8-naphthyridine-3-carboxamide] | 2.3 | 1610 | 3 | 79 | – | – | –
3 | – | CC1CCC(NC(=O)c2cc3cc(-c4ccc(OC(F)F)cc4)cnc3n(CCN3CCOCC3)c2=O)CC1 (stereo not shown) [Compound 51, 6-(4-(difluoromethoxy)phenyl)-N-(4-methylcyclohexyl)-1-(2-morpholinoethyl)-2-oxo-1,2-dihydro-1,8-naphthyridine-3-carboxamide] | 2.1 | > 10000 | 2 | 108 | – | – | –
4 | 66 | C[C@@H](NC(=O)c1cc2cc(-c3ccc(OC(F)F)cn3)cnc2n(CCN2CCOCC2)c1=O)c1ccc(F)cc1 [Compound 48, (R)-6-(5-(difluoromethoxy)pyridin-2-yl)-N-(1-(4-fluorophenyl)ethyl)-1-(2-morpholinoethyl)-2-oxo-1,2-dihydro-1,8-naphthyridine-3-carboxamide] | 4.5 | > 10000 | – | – | 0.2 | – | –
5 | – | C[C@@H](NC(=O)c1cc2cc(C3COC3)cnc2n(Cc2ccc(F)cc2)c1=O)c1ccc(F)cc1 [Compound 103, (R)-1-(4-fluorobenzyl)-N-(1-(4-fluorophenyl)ethyl)-6-(oxetan-3-yl)-2-oxo-1,2-dihydro-1,8-naphthyridine-3-carboxamide] | 3 | 2900 | 9 | 91 | – | – | –
6 | 84 | CC(NC(=O)c1cc2cc(-c3ccc(OC(F)F)cn3)cnc2n(CCN2CCOCC2)c1=O)c1ccc(F)cc1 (stereo not shown) [Compound 55, 6-(5-(difluoromethoxy)pyridin-2-yl)-N-(1-(4-fluorophenyl)ethyl)-1-(2-morpholinoethyl)-2-oxo-1,2-dihydro-1,8-naphthyridine-3-carboxamide] | 0.6 | 2940 | – | – | 11 | – | –
7 | – | C[C@@H](NC(=O)c1cc2cc(C3CC3)cnc2n(Cc2ccc(F)cc2)c1=O)c1ccc(F)cc1 [Compound 94, (R)-6-cyclopropyl-1-(4-fluorobenzyl)-N-(1-(4-fluorophenyl)ethyl)-2-oxo-1,2-dihydro-1,8-naphthyridine-3-carboxamide] | 4.1 | 3260 | 0.8 | 55 | – | – | –
8 | – | CC(NC(=O)c1c(O)c2cc(-c3ccc(F)cc3)cnc2n(CCN2CCOCC2)c1=O)c1ccc(F)cc1 (stereo not shown) [Compound 9, 6-(4-fluorophenyl)-N-(1-(4-fluorophenyl)ethyl)-4-hydroxy-1-(2-morpholinoethyl)-2-oxo-1,2-dihydro-1,8-naphthyridine-3-carboxamide] | – | – | 71 | 7 | – | < 100 | > 1000
9 | – | CC1CCC(NC(=O)c2c(O)c3cc(-c4ccc5c(c4)OCCO5)cnc3n(CCN3CCOCC3)c2=O)CC1 (stereo not shown) [Compound 19, 6-(2,3-dihydrobenzo[b][1,4]dioxin-6-yl)-4-hydroxy-N-(4-methylcyclohexyl)-1-(2-morpholinoethyl)-2-oxo-1,2-dihydro-1,8-naphthyridine-3-carboxamide] | 20 | > 10000 | 43 | 81 | – | – | –
10 | – | COc1ccc(-c2cnc3c(c2)cc(C(=O)NC24CC(C2)C4)c(=O)n3CCN2CCOCC2)cc1 [Compound 50, N-(bicyclo[1.1.1]pentan-1-yl)-6-(4-methoxyphenyl)-1-(2-morpholinoethyl)-2-oxo-1,2-dihydro-1,8-naphthyridine-3-carboxamide] | 4.3 | 2780 | 0.6 | 80 | – | – | –
11 | – | N#Cc1ccc(-c2cnc3c(c2)cc(C(=O)NC2(c4ccc(F)cc4)CC2)c(=O)n3CCN2CCOCC2)nc1 [Compound 42, 6-(5-cyanopyridin-2-yl)-N-(1-(4-fluorophenyl)cyclopropyl)-1-(2-morpholinoethyl)-2-oxo-1,2-dihydro-1,8-naphthyridine-3-carboxamide] | 23 | > 10000 | 14 | 73 | – | – | –
12 | – | O=C(NC1CC2(CCC2)C1)c1cc2cc(-c3ccc(OC(F)F)cc3)cnc2n(CCN2CCOCC2)c1=O [Compound 52, 6-(4-(difluoromethoxy)phenyl)-1-(2-morpholinoethyl)-2-oxo-N-(spiro[3.3]heptan-2-yl)-1,2-dihydro-1,8-naphthyridine-3-carboxamide] | 10 | 962 | 1 | 77 | – | – | –
13 | – | COc1ccc(-c2cnc3c(c2)cc(C(=O)NC2CC4(CCC4)C2)c(=O)n3CCN2CCOCC2)cc1 [Compound 29, 6-(4-methoxyphenyl)-1-(2-morpholinoethyl)-2-oxo-N-(spiro[3.3]heptan-2-yl)-1,2-dihydro-1,8-naphthyridine-3-carboxamide] | 1.2 | > 10000 | 5 | 107 | – | – | –
14 | – | CC1CCC(NC(=O)c2cc3cc(Br)cnc3n(CCN3CCOCC3)c2=O)CC1 (stereo not shown) [Compound 61, 6-bromo-N-(4-methylcyclohexyl)-1-(2-morpholinoethyl)-2-oxo-1,2-dihydro-1,8-naphthyridine-3-carboxamide] | – | – | 13 | 83 | – | < 100 | > 1000
15 | – | COc1ccc(-c2cnc3c(c2)c(O)c(C(=O)NC24CC(C2)C4)c(=O)n3CCN2CCOCC2)cc1 [Compound 13, N-(bicyclo[1.1.1]pentan-1-yl)-4-hydroxy-6-(4-methoxyphenyl)-1-(2-morpholinoethyl)-2-oxo-1,2-dihydro-1,8-naphthyridine-3-carboxamide] | 17 | > 10000 | 62 | 67 | – | – | –
16 | – | O=C(NC1CC2(CCC2)C1)c1c(O)c2cc(-c3ccc(F)cc3)cnc2n(CCN2CCOCC2)c1=O [Compound 6, 6-(4-fluorophenyl)-4-hydroxy-1-(2-morpholinoethyl)-2-oxo-N-(spiro[3.3]heptan-2-yl)-1,2-dihydro-1,8-naphthyridine-3-carboxamide] | 6.1 | > 10000 | – | – | > 1000 | – | –
17 | – | COc1ccc(-c2cnc3c(c2)cc(C(=O)NC(C)c2ccc(F)cc2)c(=O)n3CCN2CCOCC2)cc1 (stereo not shown) [Compound 30, N-(1-(4-fluorophenyl)ethyl)-6-(4-methoxyphenyl)-1-(2-morpholinoethyl)-2-oxo-1,2-dihydro-1,8-naphthyridine-3-carboxamide] | 1.2 | > 10000 | 17 | 89 | – | – | –
18 | – | N#Cc1ccc(-c2cnc3c(c2)cc(C(=O)NC2CC4(CCC4)C2)c(=O)n3CCN2CCOCC2)cc1 [Compound 44, 6-(4-cyanophenyl)-1-(2-morpholinoethyl)-2-oxo-N-(spiro[3.3]heptan-2-yl)-1,2-dihydro-1,8-naphthyridine-3-carboxamide] | 7.2 | 6080 | – | – | > 1000 | – | –
